Source: patent US6235707A, “Anticoagulant peptidyl-arginine aldehyde derivatives” (Gyogyszerkutato Intezet Kft., priority 1996, dated 2001)
pIC50: −log10 of the molar value.

Assays:
[1] = system: New Zealand white rabbits; assay: ex vivo whole blood clotting time (WBCT) in rabbits after p.o. dosing; set-up: species or system rabbit; conditions: p.o. 5 mg/kg
Experimental: (§1) The anticoagulant and platelet aggregation inhibiting effect of the compounds of general formula (I) was studied in New Zealand white rabbits ex vivo according to D. Bagdy et al. [Thromb. Haemost. 67, 357 (1992)]. The compounds were dissolved in buffered isotonic saline solution and administered i.v. (0,04-5.0 mg/kg) or by infusion (0.25-5.0 mg/kg/h) or subcutaneously (0.5-6.0 mg/kg) or p.o. (2.5-20 mg/kg). The effect of the compounds was detectable already within 30 minutes following p.o. administration, peak values were attained after 60-180 minutes and the therapeutic level was maintained dose-dependently for 3→6 hours.
(§2) The in vivo effect of ethoxycarbonyl-3-cyclobutyl-D-alanyl-L-prolyl-L-arginine aldehyde (1) is presented in detail in Tables 6 and 7. The corresponding values of C1 are listed as controls. The compound was administered p.o. in doses of 5 mg/kg. The blood samples drawn from the caudal vein in every 30-60 minutes were analysed. The whole blood clotting time (WBCT) and the inhibition of thrombin-induced blood platelet aggregation (PAI) were determined. The activated partial thromboplastin time (APTT) and the thrombin time (TT) in the citrate plasma obtained from the blood sample were also measured. The APTT and TT values are compiled in Table 6 and the WBCT and PAI values in Table 7.

[2] = system: New Zealand white rabbits; assay: ex vivo APTT in citrate plasma of rabbits after p.o. dosing; set-up: species or system rabbit; conditions: p.o. 5 mg/kg
Experimental: as §1, §2

[3] = system: New Zealand white rabbits; assay: anticoagulant and platelet aggregation inhibiting effect in rabbits ex vivo, time course; set-up: species or system rabbit; conditions: p.o. 5 mg/kg
Experimental: as §1, §2

[4] = target: thrombin (Homo sapiens, UniProt P00734); assay: thrombin time (TT) plasma clotting test; type: biochemical; conditions: Table 3; twofold prolongation compared to control; read-out: A: anticoagulant IC50, TT
Experimental: Anticoagulant activity (i.e. inhibition of the proteolytic reactions in the process) is measured by anticoagulant tests, e.g. in the thrombin time (TT), activated partial thromboplastin time (APTT) and prothrombin time (PT) tests [E. J. W. Bovie et al., Mayo Clinic Laboratory Manual of Haemostasis; W. B. Saunders Co., Philadelphia (1971)]. Plasma, inhibited in spontaneous coagulation, e.g. citrate-plasma, is made to coagulate and the required coagulation time is measured. Upon the action of anticoagulants the coagulation time is prolonged proportionally to the inhibition of the reaction(s) in the process. The anticoagulant effect can be characterised by the substance concentration required to prolong the coagulation time twofold compared to the control (IC50). The effect of anticoagulants on individual coagulant proteases is measured by the amidolytic method [R. Lottenberg et al., Methods in Enzymol. 80, 341 (1981); G. Cleason, Blood Coagulation and Fibrinolysis 5, 411 (1994)]. The isolated active factor (e.g. thrombin, fXa) and its chromogen or fluorogen peptide-amide substrate are reacted in the presence or absence of the inhibitor, resp. The enzyme inhibiting action is characterised by the inhibitory constant (IC50) measured during amidolysis.
In the TT test coagulation is initiated by the thrombin added to the citrate plasma. In the system 22 pmol/ml of thrombin is functioning and its inhibition can be measured on the fibrinogen (one of the natural substrates of thrombin) in the presence of plasma components. In the APTT and PT tests the full coagulation process takes place. Depending on the activator fX is activated either by the extrinsic or the intrinsic pathway. The generated fXa activates prothrombin to thrombin which, in turn, triggers plasma coagulation. The coagulation time is prolonged if the enzymes or one of them is inhibited by the inhibitor. In the APTT and PT tests at most 40 pmol/ml Xa can be generated (this is the full amount of factor X present in both systems) while 150 pmol/ml (APTT) and 350 pmol/ml (PT) of thrombin are generated [B. Kaiser et al., Thromb. Res. 65, 157 (1992)].
The in vitro anticoagulant effects of the compounds of general formula (I) was measured by the prothrombin time (PT), activated partial thromboplastin time (APTT) and thrombin time (TT) tests [D. Bagdy et al., Thromb. Haemost. 67, 325 (1992)]. The fxa-inhibiting effect of the compounds was also determined using the Bz-Ile-Glu-Gly-Arg-pNA chromogen substrate (see method M6).

[5] = target: urokinase (UK) (Homo sapiens, UniProt P00749); assay: fibrin-plate method, plasmin formation induced by urokinase; type: biochemical
Description: The inhibitory effect of the new compounds of the invention on plasmin (PL) as well as on plasmin formation induced by tissue plasminogen activator (tPA) and urokinase (UK) was examined by the fibrin-plate method [D. Bagdy et al.: Thromb. Haemost. 67, 325 (1992)]. Compounds C1 and C5 served as controls. […] V. Jackson et al.: J. Cardiovasc. Pharmacol. 21, 587 (1993))]. In Table 4 the results obtained with the new compounds 1 and 2 as well as those with controls C1 and C5 are presented as an example.

[6] = target: T1, fibrin gel-bound thrombin (Homo sapiens, UniProt P00734); assay: inhibition of fibrin gel-bound thrombin (Methods M4, M5); type: biochemical; conditions: human fibrinogen clotted with human thrombin; Tos-Gly-Pro-Arg-pNA substrate
T1 construct: purchased SIGMA
Experimental: Plasma-clot was obtained by recalcificating platelet-rich human plasma, and fibrin gel by clotting human fibrinogen with human thrombin. For the activity measures of fXa and thrombin Z-D-Arg-Gly-Arg-pNA or Tos-Gly-Pro-Arg-pNA substrates were used in agreement with Methods M1-M3.
Preparation of Fibrin Clots
a) To each reaction vessel 200 μl of human fibrinogen (SIGMA), 25 μl of 25 NIH/E/ml human thrombin (SIGMA) and 40 μl of 100 mM CaCl2 solution is placed and the mixtures are allowed to stand for 1 hour at 20-22° C. The fibrin clots are washed with isotonic NaCl-solution (3×2 ml) under gentle stirring to remove traces of thrombin and sedimented for 5 min. The effectiveness of the washing can be checked by the method M1/c.
Determination of Inhibition of Fibrin-clot Bound Thrombin
a) 0.1-1.0-10 and 100 μg/ml solutions are made from the peptide inhibitors with Hepes/NaCl buffer (0.001 M Hepes and 0.1 M NaCl, pH=7.4).
b) Measurements are continued according to M3/b.

## CCOC(=O)N[C@H](CC1CCC1)C(=O)N1CCC[C@H]1C(=O)N[C@H](C=O)CCCNC(=N)N [Example 1, Ethoxycarbonyl-3-cyclobutyl-D-alanyl-L-prolyl-L-arginine aldehyde]
[1]; 0 min
  WBCT relative clotting time: 1.0
[1]; 30 min
  WBCT relative clotting time: 1.52 ± 0.22
[1]; 45 min
  WBCT relative clotting time: 1.58 ± 0.17
[1]; 60 min
  WBCT relative clotting time: 1.88 ± 0.45
[1]; 90 min
  WBCT relative clotting time: 1.73 ± 0.33
[1]; 120 min
  WBCT relative clotting time: 1.98 ± 0.30
[1]; 180 min
  WBCT relative clotting time: 1.43 ± 0.13
[1]; 240 min
  WBCT relative clotting time: 1.12 ± 0.24
[1]; 300 min
  WBCT relative clotting time: 1.18 ± 0.08
[2]; 0 min
  APTT relative clotting time: 1.0
[2]; 30 min
  APTT relative clotting time: 1.73 ± 0.47
[2]; 45 min
  APTT relative clotting time: 1.84 ± 0.50
[2]; 60 min
  APTT relative clotting time: 1.94 ± 0.51
[2]; 90 min
  APTT relative clotting time: 1.92 ± 0.31
[2]; 120 min
  APTT relative clotting time: 1.75 ± 0.26
[2]; 180 min
  APTT relative clotting time: 1.59 ± 0.12
[2]; 240 min
  APTT relative clotting time: 1.38 ± 0.08
[2]; 300 min
  APTT relative clotting time: 1.28 ± 0.08
[3]
  duration of anticoagulant and antiaggregation effect compared to control C1: longer-lasting
[4]
  pIC50: 6.96
[5]; fibrin plate, hydrolysed area reduced to 50% of control
  pIC50: 3.92
[5]; related to the activity of C1 (1/IC50 = 1)
  B: relative efficiency, UK: 0.7
[5]; text b147, third of three enzymes
  activity against UK, times lower than that of compound C5: 39 times
[6]
  pIC50: 6.49
